Data reported in patent US9623002B2, “Pharmaceutical compositions of Anisomelic acid and the use thereof” (priority 2012, dated 2017).
“Also recorded” adds a separate entry of the source.

Tests used:
SiHa cells [1] = experiment: PE active caspase-3 apoptosis assay by FACS; type: cell-based
Method: SiHa cells were treated with 0-50 μM AA or solvent control at 10 μM interval. […] Fourty eight hours later, the cells were collected and analyzed for apoptosis and/or necrosis. Activated caspase-3 in cells was labeled with phyco-erythrin-conjugated antibody according to manufacturer's protocol (PE Active Caspase-3 Apoptosis Kit; BD Pharmingen, San Diego, Calif.) and analyzed by FACSCalibur flow cytometer (FL-2, FSC, BD Pharmingen). SiHa cells were also tested with 40 μM AA and AA emulsion for 24 and 48 h. The cells were collected and analyzed for apoptosis adopting PE active caspase-3 assay by FACS.

c33a cells [2] = experiment: His-tag E6 plasmid transfection of c33a cells, Western blot and FACS; type: cell-based; conditions: 70 μM AA
Method: c33a cells were pelleted and resuspended in OPTIMEM (Gibco, Invitrogen Foundation, Washington D.C., USA) and electroporated with mock or His-tag E6 plasmid at 220 V and 975 μF. Twenty four hours post-transfection, the culture medium was changed and the cells were treated with AA or left untreated, after which the cells were cultured for another 24 h or 48 h for further analysis adopting Western blotting and cell death assay by FACS.

HeLa cells = experiment: Apoptosis analysis in HeLa cells; type: cell-based; conditions: HPV positive HeLa cells (p53+), 40 μM AA, 48 h
Method: (§1) SiHa cells were treated with 0-50 μM AA or solvent control at 10 μM interval. […] Fourty eight hours later, the cells were collected and analyzed for apoptosis and/or necrosis. Activated caspase-3 in cells was labeled with phyco-erythrin-conjugated antibody according to manufacturer's protocol (PE Active Caspase-3 Apoptosis Kit; BD Pharmingen, San Diego, Calif.) and analyzed by FACSCalibur flow cytometer (FL-2, FSC, BD Pharmingen).
(§2) HeLa, Caski, c33a, MCF7, MDA-MB-231 and MEF cells were treated with 0 and 40 μM AA. Forty eight hours later, the cells were collected and analyzed for apoptosis.

MCF7 cells = experiment: Apoptosis analysis in MCF7 cells; type: cell-based; conditions: breast cancer MCF7 cells (p53+), 40 μM AA, 48 h
Method: as §1, §2

[3] = system: Mouse Embryonic Fibroblasts (MEF); experiment: Cell death analysis in MEF cells; type: cell-based; conditions: non-cancerous MEF cells, 40 μM AA
Method: as §1, §2

SiHa cells [4] = experiment: Propidium iodide detection of permeabilized (necrotic) cells; type: cell-based; conditions: AA doses greater than 40 μM
Method: For detection of permeabilized (necrotic) cells, the cells were trypsinized and resuspended in 50 μg/ml Propidium Iodide (PI) (Sigma-Aldrich) in PBS for 10 minutes at room temperature. The samples were analyzed by flow cytometry.

[5] = system: caspase-9, caspase-8, caspase-3 and PARP; experiment: Western blotting for cleavage of caspases and PARP; type: cell-based; conditions: SiHa lysates
Method: Whole cell lysates were prepared by lysing the cells in Laemmli sample buffer (Laemmli, 1970) and boiling the samples for 10 min after which proteins were separated in 12.5-15% SDS-PAGE. Western blotting was performed using antibodies against poly (ADP-ribose) polymerase (clone C-2-10; Sigma-Aldrich), Bid, Bax, caspase 8, caspase 9, caspase 3, SAPK/JNK, Phospho SAPK/JNK (Thr183/Tyr185), cIAP2 (Enzo Lifesciences), Akt, Phospho Akt(Ser473) (Cell Signalling Technology, Davers, Mass., USA), p21, Bcl-xL (Santa Cruz Biotechnology, Inc, Santa Cruz, Calif.), β-actin (clone AC-40; Sigma-Aldrich) and p53 (clone DO-1; BD Pharmingen). Horseradish peroxidase-conjugated secondary antibodies were obtained from Southern Biotechnology Associates (Birmingham, Ala.), Promega (Madison, Wis.) and Amersham Biosciences (Freiburg, Germany). The results were visualized using the ECL method (Amersham Biosciences) on X-ray film. The presented Western blot results are representative of at least three independent experiments.

MDA-MB-231 cells = experiment: Apoptosis analysis in MDA-MB-231 cells; type: cell-based; conditions: breast cancer MDA-MB-231 cells (p53−), 40 μM AA, 48 h
Method: as §1, §2

c33a cells [6] = experiment: Apoptosis analysis in c33a cells; type: cell-based; conditions: HPV negative c33a cells (p53−), 40 μM AA, 48 h
Method: as §1, §2

SiHa cells [7] = experiment: Cell cycle analysis of synchronized cells (PI, flow cytometry); type: cell-based; conditions: 24 h
Method: (§3) Cells were synchronized by serum-starvation (1% serum) for 48 h and then cultured in medium containing 10% FCS for 24 h. After this, the cells were incubated with 0, 20 and 40 μM AA for 24. These doses were chosen since apoptosis induction was highest at 40 μM (the dose was limited to 40 μM in the following studies). The cells were collected and disrupted and the nuclei labelled for DNA content with PI by re-suspension in sodium citrate buffer [40 mM Na-citrate, 0.3% Triton X-100, 50 μg/ml PI (Sigma-Aldrich)]. After incubation at room temperature for 10 min, the samples were immediately analyzed by FACSCalibur flow cytometry.

[8] = system: SiHa cells with p53 down-regulated by p53-shRNA; experiment: RNA interference: p53-shRNA SiHa cells treated with AA; type: cell-based
Method: as §3
The pSUPER vector (SEQ ID NO: 1) (Oligoengine, Seattle, Wash., USA) for expression of human p53 targeted shRNA (5′[…] AGUCUU3′, Brummelkamp et al., 2002) was kindly provided by Dr. Pia Roos-Mattjus. The scramble (Scr) pSUPER vector (SEQ ID NO: 2) (5′GCG CGC TTT GTA GGA TTC G3′, Ostling et al., 2007) was transfected to control cells. Trypsinized SiHa cells were transfected with the shRNA expression plasmids by electroporation in Opti-MEM media (Gibco, Calif., USA). Twenty four hours post-transfection, the culture medium was changed and the cells were treated with AA or left untreated, after which the cells were cultured for another 24 h or 48 h. The efficiency of the shRNA expression vector was determined by Western blotting for p53 expression.
Whole cell lysates were prepared by lysing the cells in Laemmli sample buffer (Laemmli, 1970) and boiling the samples for 10 min after which proteins were separated in 12.5-15% SDS-PAGE. Western blotting was performed using antibodies against poly (ADP-ribose) polymerase (clone C-2-10; Sigma-Aldrich), Bid, Bax, caspase 8, caspase 9, caspase 3, SAPK/JNK, Phospho SAPK/JNK (Thr183/Tyr185), cIAP2 (Enzo Lifesciences), Akt, Phospho Akt(Ser473) (Cell Signalling Technology, Davers, Mass., USA), p21, Bcl-xL (Santa Cruz Biotechnology, Inc, Santa Cruz, Calif.), β-actin (clone AC-40; Sigma-Aldrich) and p53 (clone DO-1; BD Pharmingen). […]

SiHa cells [9] = experiment: Mitochondrial depolarization by TMRM labeling; type: cell-based; conditions: 20-40 μM AA, 8-48 h
Method: Tetramethylrhodamine, methyl ester (TMRM, Invitrogen, Cergy Pontoise, France) was stored as 20 mM dimethylsulfoxide stock and diluted in medium before use. The cells were incubated in 20 nM tetramethylrhodamine for 10 min in 37° C. water bath. The cells were placed on ice and analyzed immediately by FACSCalibur flow cytometry.

Caski cells = experiment: Apoptosis analysis in Caski cells; type: cell-based; conditions: HPV positive Caski cells (p53+), 40 μM AA, 48 h
Method: as §1, §2

SiHa cells [10] = experiment: MTT cytotoxicity assay; type: cell-based; conditions: 50 μM AA, preliminary studies, unpublished data
Solubility = type: physicochemical

Z-VAD.fmk [reference compound]
effect on AA-induced caspase-3 activation (SiHa cells [1]; SiHa, pre-incubation with 40 μM Z-VAD.fmk prior to 40 μM AA, data not shown): reversed caspase-3 activation and apoptotic cell morphology

C=C1C(=O)O[C@H]2/C=C(\C)CC/C=C(\C(=O)O)CC/C=C(\C)CC[C@H]12 [AA, Anisomelic acid]
AA-induced apoptosis after E6 transfection (c33a cells [2]; c33a cells transfected with His-tag E6 vs mock): rescued c33a cells from apoptsis significantly
apoptosis induction (c33a cells [2]; c33a cells): undergo apoptosis
apoptosis induction (HeLa cells): effectively induced apoptosis
time at which maximum percentage of apoptosis was achieved (SiHa cells [1]; SiHa cells): 48 h
cells that contained activated caspase-3 as a measure of apoptosis (SiHa cells [1]; SiHa, 40 μM AA, 48 h): marked activation of caspase-3
caspase-3 cleavage (SiHa cells [1]; SiHa, AA doses greater than 40 μM): reduced caspase-3 cleavage dramatically
apoptosis induction (MCF7 cells): failed to induce effective apoptosis
cell death [3]: failed to induce cell death
cell permeabilization by PI labeling (necrotic cell death) (SiHa cells [4]): could not detect increased cell permeabilization
cleavage of caspase-3 and PARP ([5]; 20-40 μM AA): induced the cleavage of caspase-3 and poly-ADP-ribose polymerase (PARP)
cleavage of procaspase-9 into 35/37 kDa fragments ([5]; 20 and 40 μM AA): seen after 12 h incubation
cleavage of procaspase-8 ([5]; AA treatment): observed abundantly only after 24 h
apoptosis induction (MDA-MB-231 cells): failed to induce effective apoptosis
apoptosis induction (c33a cells [6]): significantly less; also recorded: do not undergo apoptosis
cell cycle distribution (SiHa cells [7]; 20 and 40 μM AA): accumulated at the G2/M phase
dose at which G2/M arrest occurred more effectively (SiHa cells [7]): 20 µM
percentage of AA-induced apoptosis (caspase-3 activation, flow cytometry) ([8]; SiHa cells in the absence of p53 expression, 40 μM AA): did not observe any significant decrease
induction of p53 and p21 proteins by AA ([8]; p53-shRNA SiHa cells, 40 μM & 20 μM AA respectively): abrogated
AA-induced cell cycle arrest ([8]; p53-shRNA SiHa cells, 24 h after start of AA treatment): no longer accumulated at the G2/M phase
mitochondrial membrane depolarization (SiHa cells [9]): occured in a time-dependent manner
apoptosis induction (Caski cells): effectively induced apoptosis
killing (SiHa cells [10]): ≥ 95%
solubility in DMSO and hot ethanol (Solubility): dissolves
solubility in water or other aqueous solvents (Solubility): mostly insoluble
